Patent US11351148B1, “Pharmaceutical composition Mix A to treat health conditions associated with elevated glucose levels” (priority 2021, dated 2022)

System: skeletal muscle cells
Assay: In vitro uptake of 2-DG (glucose derivative) in skeletal muscle cells
Assay type: cell-based, rat
Description: The assay was performed according to manufactures' protocol. Briefly, […] L6 cell line cells were seeded and grown to confluency in white 96 well plates in culture medium containing 10% FBS (serum). After treating with various nutrients with or without insulin cells were starved by incubating in DMEM without glucose and serum. Samples were processed using Glucose Uptake Assay kit according to manufacturer's protocol that uses the glucose analog 2-deoxyglucose (2-DG) to detect and quantify glycose uptake in cells. Luminescence was measured by a Tecan luminometer. 4 repetitions were performed for each treatment when testing individual components and 3 repetitions when testing mixes.

| Molecule | stimulating effect on glucose uptake by individual compounds compared to controls (FIG. 6, 0.0001 ug/ml, 24 h at 37° C.) | glucose uptake by the cells, insulin alone (FIG. 8, insulin alone at different concentrations) |
| --- | --- | --- |
| [Cr] [chromium] | highest stimulating effect |  |
| Insulin: human insulin obtained from Sigma |  | concentration dependent increase |
